The NIST ThermoML archive (doi:10.1016/j.jct.2014.12.011)

Experiment: mn = molality of the nth substance listed, in mol/kg
Conditions: 100 kPa, Liquid, Alternating current cell with electrodes

CCCCCCCCCC(=O)[O-].[Cs+] [cesium decanoate] + O
electrical conductivity [S/m]
Conditions	278.15 K	288.15 K	298.15 K	308.15 K	318.15 K	328.15 K
m1 = 0.00805	0.0479	0.0614	0.0757	0.091	0.107	0.123
m1 = 0.01759	0.101	0.13	0.161	0.193	0.227	0.261
m1 = 0.0274	0.151	0.197	0.241	0.29	0.342	0.396
m1 = 0.03769	0.207	0.261	0.323	0.39	0.46	0.533
m1 = 0.04818	0.261	0.327	0.404	0.487	0.575	0.667
m1 = 0.06109	0.316	0.405	0.502	0.604	0.713	0.824
m1 = 0.0725	0.3714	0.476	0.588	0.707	0.829	0.958
m1 = 0.08819	0.4405	0.564	0.696	0.835	0.988	1.147
m1 = 0.1027	0.5001	0.639	0.7914	0.954	1.121	1.3
m1 = 0.1172	0.554	0.715	0.883	1.06	1.24	1.44
m1 = 0.1325	0.6113	0.79	0.965	1.16	1.36	1.58
m1 = 0.153	0.697	0.875	1.07	1.28	1.514	1.76
m1 = 0.1705	0.7509	0.944	1.16	1.39	1.642	1.914
m1 = 0.1873	0.799	1.009	1.241	1.49	1.77	2.06
m1 = 0.2051	0.8512	1.08	1.33	1.604	1.9	2.211
m1 = 0.2256	0.914	1.16	1.438	1.735	2.05	2.39
m1 = 0.2463	0.976	1.25	1.542	1.86	2.207	2.57

CCCCCCCCCC(=O)[O-].[K+] [potassium decanoate] + O
Conditions	electrical conductivity [S/m]
288.15 K, m1 = 0.00932	0.0666
288.15 K, m1 = 0.01855	0.13
288.15 K, m1 = 0.02771	0.19
288.15 K, m1 = 0.03678	0.247
288.15 K, m1 = 0.04578	0.303
288.15 K, m1 = 0.0547	0.358
288.15 K, m1 = 0.06355	0.411
288.15 K, m1 = 0.07232	0.462
288.15 K, m1 = 0.08102	0.511
288.15 K, m1 = 0.08964	0.5603
288.15 K, m1 = 0.09819	0.608
288.15 K, m1 = 0.1067	0.654
288.15 K, m1 = 0.1151	0.698
288.15 K, m1 = 0.1234	0.738
288.15 K, m1 = 0.1317	0.771
288.15 K, m1 = 0.1399	0.8021
288.15 K, m1 = 0.148	0.8314
288.15 K, m1 = 0.1561	0.86
288.15 K, m1 = 0.1641	0.888
288.15 K, m1 = 0.1721	0.915
288.15 K, m1 = 0.1799	0.943
288.15 K, m1 = 0.1878	0.9704
298.15 K, m1 = 0.00998	0.0875
298.15 K, m1 = 0.01987	0.172
298.15 K, m1 = 0.02967	0.251
298.15 K, m1 = 0.03939	0.328
298.15 K, m1 = 0.04902	0.402
298.15 K, m1 = 0.05856	0.474
298.15 K, m1 = 0.06803	0.545
298.15 K, m1 = 0.07741	0.613
298.15 K, m1 = 0.08671	0.679
298.15 K, m1 = 0.09593	0.743
298.15 K, m1 = 0.1051	0.802
298.15 K, m1 = 0.1141	0.858
298.15 K, m1 = 0.1231	0.905
298.15 K, m1 = 0.1321	0.949
298.15 K, m1 = 0.1409	0.99
298.15 K, m1 = 0.1497	1.03
298.15 K, m1 = 0.1583	1.07
298.15 K, m1 = 0.167	1.108
298.15 K, m1 = 0.1755	1.147
298.15 K, m1 = 0.184	1.19
298.15 K, m1 = 0.1924	1.224
298.15 K, m1 = 0.2008	1.26
298.15 K, m1 = 0.209	1.301
308.15 K, m1 = 0.00952	0.101
308.15 K, m1 = 0.01895	0.198
308.15 K, m1 = 0.0283	0.29
308.15 K, m1 = 0.03758	0.379
308.15 K, m1 = 0.04677	0.465
308.15 K, m1 = 0.05588	0.549
308.15 K, m1 = 0.06492	0.631
308.15 K, m1 = 0.07388	0.71
308.15 K, m1 = 0.08277	0.785
308.15 K, m1 = 0.09158	0.8601
308.15 K, m1 = 0.1003	0.931
308.15 K, m1 = 0.109	0.996
308.15 K, m1 = 0.1176	1.05
308.15 K, m1 = 0.1261	1.104
308.15 K, m1 = 0.1346	1.15
308.15 K, m1 = 0.1429	1.201
308.15 K, m1 = 0.1512	1.25
308.15 K, m1 = 0.1595	1.29
308.15 K, m1 = 0.1677	1.342
308.15 K, m1 = 0.1758	1.39
308.15 K, m1 = 0.1838	1.434
308.15 K, m1 = 0.1918	1.48
308.15 K, m1 = 0.1997	1.525
318.15 K, m1 = 0.0099	0.125
318.15 K, m1 = 0.01971	0.243
318.15 K, m1 = 0.02944	0.356
318.15 K, m1 = 0.03908	0.465
318.15 K, m1 = 0.04864	0.571
318.15 K, m1 = 0.05811	0.673
318.15 K, m1 = 0.0675	0.771
318.15 K, m1 = 0.07682	0.867
318.15 K, m1 = 0.08605	0.962
318.15 K, m1 = 0.0952	1.05
318.15 K, m1 = 0.1043	1.135
318.15 K, m1 = 0.1133	1.21
318.15 K, m1 = 0.1222	1.28
318.15 K, m1 = 0.131	1.342
318.15 K, m1 = 0.1398	1.404
318.15 K, m1 = 0.1485	1.46
318.15 K, m1 = 0.1571	1.524
318.15 K, m1 = 0.1657	1.58
318.15 K, m1 = 0.1742	1.641
318.15 K, m1 = 0.1826	1.7
318.15 K, m1 = 0.1909	1.76
318.15 K, m1 = 0.1992	1.815
318.15 K, m1 = 0.2074	1.87
328.15 K, m1 = 0.00972	0.143
328.15 K, m1 = 0.01937	0.279
328.15 K, m1 = 0.02892	0.408
328.15 K, m1 = 0.0384	0.533
328.15 K, m1 = 0.0478	0.654
328.15 K, m1 = 0.05712	0.769
328.15 K, m1 = 0.06636	0.883
328.15 K, m1 = 0.07552	0.994
328.15 K, m1 = 0.08461	1.103
328.15 K, m1 = 0.09362	1.207
328.15 K, m1 = 0.1026	1.305
328.15 K, m1 = 0.1114	1.4
328.15 K, m1 = 0.1202	1.48
328.15 K, m1 = 0.1289	1.55
328.15 K, m1 = 0.1376	1.627
328.15 K, m1 = 0.1462	1.7
328.15 K, m1 = 0.1547	1.77
328.15 K, m1 = 0.1631	1.836
328.15 K, m1 = 0.1715	1.904
328.15 K, m1 = 0.1798	1.97
328.15 K, m1 = 0.188	2.038
328.15 K, m1 = 0.1962	2.106
328.15 K, m1 = 0.2043	2.17
